Columns and labels:
JNK1 = JNK1 (Homo sapiens (Human), UniProt P45983); test: In Vitro JNK1 Assay (TR-FRET, phosphorylation of GST-c-Jun); format: biochemical; details: 0.2 nM active JNK1 kinase, 26.7 nM GST-c-Jun, 2 μM ATP, 30 min at room temperature
Outline: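 GST-c-Jun (residues 1-79) phosphorylation by JNK1 in 50 mM HEPES pH 7.0, MgCl2, 1 mM DTT, 0.1 mM Na3VO4, 0.2 mg/mL BSA, 30 min at room temperature. Stopped with EDTA plus anti-phospho-c-Jun antibody and read by TR-FRET 1 hr later. IC50 from percent inhibition over 10 serial dilutions.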

[1] = system: phospho(Ser63)-c-jun in HK-2 cells; test: Cell-Based Assay for JNK Inhibitors (in-cell ELISA, phospho(Ser63)-c-jun after TNFα); details: HK-2 cells (human proximal tubule cells), 60 minutes compound, then 10 ng/mL TNFα for 30 minutes
Outline: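 HK-2 human proximal tubule cells were seeded at 40,000 cells/well, cultured 24 h, then serum-starved 16–24 h before TNFα stimulation with compound. Phospho(Ser63)-c-jun was quantified by in-cell ELISA on fixed, permeabilised cells, using a rabbit phospho-specific primary (overnight, 4 °C) and an HRP-linked anti-rabbit secondary. Absorbance was read at 450 nm.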

JNK1, sequence (P45983 whole entry, the tested form may be a part): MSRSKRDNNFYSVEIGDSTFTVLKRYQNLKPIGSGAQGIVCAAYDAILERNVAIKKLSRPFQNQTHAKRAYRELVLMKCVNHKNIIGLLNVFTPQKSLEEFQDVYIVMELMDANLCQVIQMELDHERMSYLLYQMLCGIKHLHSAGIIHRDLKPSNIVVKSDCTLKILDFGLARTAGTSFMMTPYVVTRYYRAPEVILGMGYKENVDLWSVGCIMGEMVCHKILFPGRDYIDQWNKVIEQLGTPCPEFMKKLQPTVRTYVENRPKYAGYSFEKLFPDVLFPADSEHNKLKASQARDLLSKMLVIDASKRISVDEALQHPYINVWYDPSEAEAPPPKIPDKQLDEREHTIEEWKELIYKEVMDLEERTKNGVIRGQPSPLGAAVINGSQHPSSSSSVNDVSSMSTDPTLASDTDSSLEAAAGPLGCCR

COC(=O)c1c(CNC(=O)c2cnn(Cc3ccccc3)c2)c(=O)c2ccc(Cl)cc2n1-c1ccccc1 [Example I-119, 3-{[(1-Benzyl-1H-pyrazole-4-carbonyl)-amino]-methyl}-7-chloro-4-oxo-1-phenyl-1,4-dihydro-quinoline-2-carboxylic acid methyl ester]
IC50 (JNK1): 13 nM
EC50 [1]: 6300 nM

COC(=O)c1c(CNC(=O)c2ccc3cc[nH]c3c2)c(=O)c2ccc(Cl)cc2n1-c1ccccc1 [Example I-120, 7-Chloro-3-{[(1H-indole-6-carbonyl)-amino]-methyl}-4-oxo-1-phenyl-1,4-dihydro-quinoline-2-carboxylic acid methyl ester]
IC50 (JNK1): 15 nM
EC50 [1]: 3000 nM

COC(=O)c1c(CNC(=O)c2cnn(C)c2)c(=O)c2ccc(Cl)cc2n1-c1ccccc1 [Example I-121, 7-Chloro-3-{[(1-methyl-1H-pyrazole-4-carbonyl)-amino]-methyl}-4-oxo-1-phenyl-1,4-dihydro-quinoline-2-carboxylic acid methyl ester]
IC50 (JNK1): 15 nM
EC50 [1]: 1800 nM

COC(=O)c1c(CNC(=O)c2ccc(-c3cc[nH]n3)cc2)c(=O)c2ccc(Cl)cc2n1-c1ccccc1 [Example I-122, 7-Chloro-4-oxo-1-phenyl-3-{[4-(1H-pyrazol-3-yl)-benzoylamino]-methyl}-1,4-dihydro-quinoline-2-carboxylic acid methyl ester]
IC50 (JNK1): 15 nM
EC50 [1]: 3300 nM

COC(=O)c1c(CNC(=O)c2ccc(N3CCOCC3)cc2)c(=O)c2ccc(Cl)cc2n1-c1ccccc1 [Example I-123, 7-Chloro-3-[(4-morpholin-4-yl-benzoylamino)-methyl]-4-oxo-1-phenyl-1,4-dihydro-quinoline-2-carboxylic acid methyl ester]
IC50 (JNK1): 16 nM
EC50 [1]: 2200 nM

COC(=O)c1c(CNC(=O)c2ccc(-c3cnns3)cc2)c(=O)c2ccc(Cl)cc2n1-c1ccccc1 [Example I-124, 7-Chloro-4-oxo-1-phenyl-3-[(4-[1,2,3]thiadiazol-5-yl-benzoylamino)-methyl]-1,4-dihydro-quinoline-2-carboxylic acid methyl ester]
IC50 (JNK1): 17 nM
EC50 [1]: 7800 nM

COC(=O)c1c(CNC(=O)c2ccc(-c3noc(C)n3)cc2)c(=O)c2ccc(Cl)cc2n1-c1ccccc1 [Example I-125, 7-Chloro-3-{[4-(5-methyl-[1,2,4]oxadiazol-3-yl)-benzoylamino]-methyl}-4-oxo-1-phenyl-1,4-dihydro-quinoline-2-carboxylic acid methyl ester]
IC50 (JNK1): 22 nM
EC50 [1]: 18000 nM

COC(=O)c1c(CNC(=O)c2ccc(-c3nc(C)no3)cc2)c(=O)c2ccc(Cl)cc2n1-c1ccccc1 [Example I-126, 7-Chloro-3-{[4-(3-methyl-[1,2,4]oxadiazol-5-yl)-benzoylamino]-methyl}-4-oxo-1-phenyl-1,4-dihydro-quinoline-2-carboxylic acid methyl ester]
IC50 (JNK1): 29 nM
EC50 [1]: 14000 nM

COC(=O)c1c(CNC(=O)c2ccc(-c3csc(C)n3)cc2)c(=O)c2ccc(Cl)cc2n1-c1ccccc1 [Example I-127, 7-Chloro-3-{[4-(2-methyl-thiazol-4-yl)-benzoylamino]-methyl}-4-oxo-1-phenyl-1,4-dihydro-quinoline-2-carboxylic acid methyl ester]
IC50 (JNK1): 31 nM
EC50 [1]: 38000 nM

COC(=O)c1c(CNC(=O)C2CCN(C(=O)OC(C)(C)C)CC2)c(=O)c2ccc(Cl)cc2n1-c1ccccc1 [Example I-128, 3-{[(1-tert-Butoxycarbonyl-piperidine-4-carbonyl)-amino]-methyl}-7-chloro-4-oxo-1-phenyl-1,4-dihydro-quinoline-2-carboxylic acid methyl ester]
IC50 (JNK1): 35 nM
EC50 [1]: 100000 nM

COC(=O)c1c(CNC(=O)c2ccc(-c3nnn(C)n3)cc2)c(=O)c2ccc(Cl)cc2n1-c1ccccc1 [Example I-129, 7-Chloro-3-{[4-(2-methyl-2H-tetrazol-5-yl)-benzoylamino]-methyl}-4-oxo-1-phenyl-1,4-dihydro-quinoline-2-carboxylic acid methyl ester]
IC50 (JNK1): 50 nM
EC50 [1]: 11000 nM

COC(=O)c1c(CNC(=O)C2CCN(C(C)=O)CC2)c(=O)c2ccc(Cl)cc2n1-c1ccccc1 [Example I-130, 3-{[(1-Acetyl-piperidine-4-carbonyl)-amino]-methyl}-7-chloro-4-oxo-1-phenyl-1,4-dihydro-quinoline-2-carboxylic acid methyl ester]
IC50 (JNK1): 220 nM
EC50 [1]: 100000 nM

COC(=O)c1c(CNC(=O)c2ccc(Cl)cc2)c(=O)c2ccc(Cl)cc2n1-c1ccccc1 [Example I-132, 7-Chloro-3-[(4-chloro-benzoylamino)-methyl]-4-oxo-1-phenyl-1,4-dihydro-quinoline-2-carboxylic acid methyl ester]
IC50 (JNK1): 15 nM
EC50 [1]: 9200 nM

COC(=O)c1ccc(C(=O)NCc2c(C(=O)OC)n(-c3ccccc3)c3cc(Cl)ccc3c2=O)cc1 [Example I-133, 7-Chloro-3-[(4-methoxycarbonyl-benzoylamino)-methyl]-4-oxo-1-phenyl-1,4-dihydro-quinoline-2-carboxylic acid methyl ester]
IC50 (JNK1): 6 nM
EC50 [1]: 13000 nM

COC(=O)c1c(CNC(=O)c2ccc(OC)cc2)c(=O)c2ccc(Cl)cc2n1-c1ccccc1 [Example I-134, 7-Chloro-3-[(4-methoxybenzoylamino)-methyl]-4-oxo-1-phenyl-1,4-dihydro-quinoline-2-carboxylic acid methyl ester]
IC50 (JNK1): 7 nM
EC50 [1]: 1900 nM

COC(=O)c1c(CNC(=O)c2cccc(OC)c2)c(=O)c2ccc(Cl)cc2n1-c1ccccc1 [Example I-135, 7-Chloro-3-[(3-methoxybenzoylamino)-methyl]-4-oxo-1-phenyl-1,4-dihydro-quinoline-2-carboxylic acid methyl ester]
IC50 (JNK1): 8 nM
EC50 [1]: 4800 nM

COC(=O)c1c(CNC(=O)c2ccncc2)c(=O)c2ccc(Cl)cc2n1-c1ccccc1 [Example I-136, 7-Chloro-4-oxo-1-phenyl-3-{[(pyridine-4-carbonyl)-amino]-methyl}-1,4-di-hydro-quinoline-2-carboxylic acid methyl ester]
IC50 (JNK1): 12 nM
EC50 [1]: 7900 nM

COC(=O)c1c(CNC(=O)c2cccc(F)c2)c(=O)c2ccc(Cl)cc2n1-c1ccccc1 [Example I-138, 7-Chloro-3-[(3-fluoro-benzoylamino)-methyl]-4-oxo-1-phenyl-1,4-dihydro-quinoline-2-carboxylic acid methyl ester]
IC50 (JNK1): 13 nM
EC50 [1]: 10000 nM

COC(=O)c1c(CNC(=O)c2cccnc2)c(=O)c2ccc(Cl)cc2n1-c1ccccc1 [Example I-139, 7-Chloro-4-oxo-1-phenyl-3-{[(pyridine-3-carbonyl)-amino]-methyl}-1,4-dihydro-quinoline-2-carboxylic acid methyl ester]
IC50 (JNK1): 13 nM
EC50 [1]: 9800 nM

COC(=O)c1c(CNC(=O)c2ccc(F)cc2)c(=O)c2ccc(Cl)cc2n1-c1ccccc1 [Example I-140, 7-Chloro-3-[(4-fluoro-benzoylamino)-methyl]-4-oxo-1-phenyl-1,4-dihydro-quinoline-2-carboxylic acid methyl ester]
IC50 (JNK1): 14 nM
EC50 [1]: 10000 nM

COC(=O)c1c(CNC(=O)c2ccc(F)c(Cl)c2)c(=O)c2ccc(Cl)cc2n1-c1ccccc1 [Example I-141, 7-Chloro-3-[(3-chloro-4-fluoro-benzoylamino)-methyl]-4-oxo-1-phenyl-1,4-dihydro-quinoline-2-carboxylic acid methyl ester]
IC50 (JNK1): 15 nM
EC50 [1]: 7000 nM

COC(=O)c1c(CNC(=O)c2cccc(Cl)c2)c(=O)c2ccc(Cl)cc2n1-c1ccccc1 [Example I-142, 7-Chloro-3-[(3-chloro-benzoylamino)-methyl]-4-oxo-1-phenyl-1,4-dihydro-quinoline-2-carboxylic acid methyl ester]
IC50 (JNK1): 17 nM
EC50 [1]: 9700 nM

COC(=O)c1c(CNC(=O)c2ccc(OC)c(OC)c2)c(=O)c2ccc(Cl)cc2n1-c1ccccc1 [Example I-143, 7-Chloro-3-[(3,4-dimethoxy-benzoylamino)-methyl]-4-oxo-1-phenyl-1,4-dihydro-quinoline-2-carboxylic acid methyl ester]
IC50 (JNK1): 39 nM
EC50 [1]: 1000 nM

COC(=O)c1c(CNC(=O)c2ccc(Cl)c(Cl)c2)c(=O)c2ccc(Cl)cc2n1-c1ccccc1 [Example I-144, 7-Chloro-3-[(3,4-dichloro-benzoylamino)-methyl]-4-oxo-1-phenyl-1,4-dihydro-quinoline-2-carboxylic acid methyl ester]
IC50 (JNK1): 48 nM
EC50 [1]: 8800 nM

COC(=O)c1c(CNC(=O)c2ccccc2F)c(=O)c2ccc(Cl)cc2n1-c1ccccc1 [Example I-145, 7-Chloro-3-[(2-fluoro-benzoylamino)-methyl]-4-oxo-1-phenyl-1,4-dihydro-quinoline-2-carboxylic acid methyl ester]
IC50 (JNK1): 65 nM
EC50 [1]: 100000 nM

COC(=O)c1c(CNC(=O)c2ccccc2)c(=O)c2ccc(Cl)cc2n1-c1ccccc1 [Example I-150, 7-Chloro-3-[(benzoylamino)-methyl]-4-oxo-1-phenyl-1,4-dihydro-quinoline-2-carboxylic acid methyl ester]
IC50 (JNK1): 12 nM
EC50 [1]: 7700 nM

COC(=O)c1c(CNC(=O)c2ccccc2)c(=O)c2ccccc2n1-c1ccccc1 [Example I-151, 3-(Benzoylamino-methyl)-4-oxo-1-phenyl-1,4-dihydro-quinoline-2-carboxylic acid methyl ester]
IC50 (JNK1): 39 nM
EC50 [1]: 14000 nM

Source: patent US8501732B2, “Aminomethyl quinolone compounds” (Hoffmann-La Roche Inc., priority 2011, dated 2013)
